Assay results reported in PMC3493614, “Structural and Binding Properties of Two Paralogous Fatty Acid Binding Proteins of Taenia solium Metacestode” (PLoS Neglected Tropical Diseases, 2012).
Values joined by “and” are separate entries in the source; they are usually repeats but may differ in a detail not shown here. Identical values can stand only once. Like-named read-outs stand apart in the source and are kept apart here.

How the values were obtained:
recTsMFABP2 [1] = target: T1, recTsMFABP2 (Taenia solium, UniProt F2WVQ3); test: Fluorometric ligand binding assay, recombinant TsMFABP2; conditions: for Vmax: rate calculated from relative fluorescence (Vmax = Fmax), ligand 0.1-10 µM (FA analogs) or 0.1-10 mM (retinol); for Vmax/K d (binding rate constant): ratio of Vmax to K d
Method: (§1) All the proteins were delipidated for 2 h using Sephadex-LH (Sigma-Aldrich) prior to assay. The ligand binding profile of the native and rTsMFABPs were detected spectrofluorometrically using fluorescent FA analogs, including 11-([5-dimethylaminonaphthalene-1-sulfonyl]amino)undecannoic acid (DAUDA), dansyl-DL-α-aminocaprylic acid (DACA) (Molecular Probes), retinol (Sigma-Aldrich) and naturally fluorescent cis-parinaric acid (cPnA; Molecular Probes). Fluorescence emission spectra were recorded at 25°C with a total volume of 200 µl per well using black 96-well Microfluor 1 plates and an Infinite M-200 automated multi-detector (Tecan). The emission and excitation wavelengths for DAUDA, DACA, retinol and cPnA were 519, 519, 325 and 420 nm, and 345, 350, 350 and 315 nm, respectively. We included the TsM 120-kDa protein (10 µM) and recombinant 18 kDa (5 µM; a subunit of the TsM 120-kDa protein), which were proven not to have FA-binding activity, as negative controls during the measurements. All fluorescent stock compounds (10 mM dissolved in ethanol) were stored at −20°C in a dark room and were freshly diluted in ethanol prior to use. The equilibrium dissociation constants (K d) of the proteins bound to DAUDA, retinol and cPnA were estimated by adding increasing concentrations of respective ligands (0.1–10 µM for FA analogs and 0.1–10 mM for retinol) in a micro-quartz plate. Fluorescence intensities were normalized to the peak fluorescence intensity and corrected for background fluorescence of the ligand alone at each concentration. Corrected data were analyzed using the one-site saturation model and best fit algorithm contained in SigmaPlot9 software (y = V max X/K m+X, where y is relative fluorescence and X is concentrations of lipid ligand. V max can be substituted as Fmax [maximum fluorescence]). Competition assays were carried out by monitoring the change in fluorescence intensity at the peak transmission wavelength measured for either rTsMFABPs:DAUDA, rTsMFABPs:retinol or rTsMFABPs:cPnA complex in the presence of 10-fold excess oleic acid.
(§2) The partially purified native and recombinant proteins were subjected to delipidation. Each of the proteins (1 µM) was used in a hydrophobic ligand binding assay against the polarity-sensitive fluorophore-tagged FA analogs (0.1 µM) and retinol (5 mM). […] The TsMFABP2 also bound to DAUDA, although its specific activity was lower than that of the TsMFABP1. […] The retinol-binding activity of rTsMFABP2 appeared to be higher than that of rTsMFABP1. […] No binding activity was detected in the reactions with the TsM 120-kDa and recombinant 18-kDa proteins, which were used as negative controls.

recTsMFABP1 [2] = target: T2, recTsMFABP1 (Taenia solium, UniProt Q2XNL7); test: Fluorometric ligand binding assay, recombinant TsMFABP1; conditions: for Kd / Vmax: one-site saturation model, 25°C; for Kd: ligand 0.1-10 µM; for Vmax: rate calculated from relative fluorescence (Vmax = Fmax), ligand 0.1-10 µM (FA analogs) or 0.1-10 mM (retinol); for Vmax/K d (binding rate constant): ratio of Vmax to K d
Method: as §1, §2

recTsMFABP2 [3] = target: T1, recTsMFABP2; test: Fluorometric ligand binding assay, recombinant TsMFABP2; conditions: rTsMFABP2:retinol complex; oleic acid 5 µM (Figure 2D); protein 1 µM, retinol 5 mM
recTsMFABP1 [4] = target: T2, recTsMFABP1; test: Fluorometric ligand binding assay, recombinant TsMFABP1; conditions: rTsMFABP1:DAUDA complex; oleic acid 5 µM (Figure 2B); protein 1 µM, DAUDA 0.1 µM
[5] = one-site saturation model, ligand 0.1-10 µM, 25°C, read-out: K d
[6] = one-site saturation model, 25°C
[7] = protein 1 µM, FA analog 0.1 µM, data not shown

T1 sequence (F2WVQ3 entry or part of it): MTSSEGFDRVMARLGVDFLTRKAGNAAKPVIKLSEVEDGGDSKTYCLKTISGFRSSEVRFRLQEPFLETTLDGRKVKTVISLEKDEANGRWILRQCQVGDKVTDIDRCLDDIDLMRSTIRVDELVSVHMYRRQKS
T2 sequence (Q2XNL7 entry or part of it): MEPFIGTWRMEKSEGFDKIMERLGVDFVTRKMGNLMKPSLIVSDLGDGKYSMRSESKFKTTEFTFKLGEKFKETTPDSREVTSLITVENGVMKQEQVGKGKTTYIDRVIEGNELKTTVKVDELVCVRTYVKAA

## CC\C=C/C=C/C=C/C=C\CCCCCCCC(=O)O [cPnA, cis-parinaric acid]
recTsMFABP2 [1]; [5]
  Kd: 640 ± 40 nM
recTsMFABP2 [1]; [6]
  Vmax: 309.1±28.4
recTsMFABP2 [1]
  Vmax/K d (binding rate constant): 483.0 and 483.0±47.1
recTsMFABP1 [2]
  Kd: 280 ± 20 nM
  Vmax: 608.4±57.8
  Vmax/K d (binding rate constant): 2172.9 and 2172.9±214.6

## CCCCCCC(NS(=O)(=O)c1cccc2c(N(C)C)cccc12)C(=O)O (racemic) [DACA, dansyl-DL-α-aminocaprylic acid]
recTsMFABP2 [1]; [7]
  Binding (fluorescence interaction mode): interaction modes comparable to those with DAUDA
recTsMFABP1 [2]; [7]
  Binding (fluorescence interaction mode): interaction modes comparable to those with DAUDA

## CCCCCCCC/C=C\CCCCCCCC(=O)O [oleic acid]
recTsMFABP2 [3]
  Competition with retinol binding: significant replacement of retinol from the binding site
recTsMFABP1 [4]
  Competition with DAUDA binding: competitively inhibited by oleic acid in a dose-dependent manner

## CN(C)c1cccc2c(S(=O)(=O)NCCCCCCCCCCC(=O)O)cccc12 [DAUDA, 11-([5-dimethylaminonaphthalene-1-sulfonyl]amino)undecannoic acid]
recTsMFABP2 [1]; [5]
  Kd: 9400 ± 890 nM
recTsMFABP2 [1]; [6]
  Vmax: 364.2±3.5
recTsMFABP2 [1]
  Vmax/K d (binding rate constant): 38.7 and 38.7±3.94
recTsMFABP1 [2]
  Kd: 2150 ± 140 nM
  Vmax: 299.5±3.0
  Vmax/K d (binding rate constant): 139.3 and 139.3±12.7

## CC1=C(/C=C/C(C)=C/C=C/C(C)=C/CO)C(C)(C)CCC1 [Retinol, retinol]
recTsMFABP2 [1]
  Kd: 980000 ± 80000 nM
  Vmax/K d (binding rate constant): 211.3±20.3
recTsMFABP2 [1]; [6]
  Vmax: 207.1±19.6
recTsMFABP2 [1]; listed as retinol
  Vmax/K d (binding rate constant): 211.3
recTsMFABP1 [2]
  Vmax: 306.3±31.4
  Vmax/K d (binding rate constant): 172.1±15.5
recTsMFABP1 [2]; listed as retinol
  Vmax/K d (binding rate constant): 172.1
